Measured values taken from US12678512B2, “Anti-EGFR antibody-drug conjugate with a cyclic dinucleotide derivative” (DAIICHI SANKYO COMPANY, LIMITED, priority 2020, dated 2026).

What was measured:
[1] = target: T1, human HAQ mutant (Hu-HAQ) STING C-terminal binding domain protein (Homo sapiens, UniProt Q86WV6, G230A/H232R/R293Q); experiment: Protein thermal shift assay, STING binding; settings: test compound final concentration 0.5 mM
T1 construct: made in house; host or cells: E. coli Rosetta 2 (DE3), co-expressed with BirA
T1 sequence (Q86WV6 with tags, fused parts or gaps G230A/H232R/R293Q): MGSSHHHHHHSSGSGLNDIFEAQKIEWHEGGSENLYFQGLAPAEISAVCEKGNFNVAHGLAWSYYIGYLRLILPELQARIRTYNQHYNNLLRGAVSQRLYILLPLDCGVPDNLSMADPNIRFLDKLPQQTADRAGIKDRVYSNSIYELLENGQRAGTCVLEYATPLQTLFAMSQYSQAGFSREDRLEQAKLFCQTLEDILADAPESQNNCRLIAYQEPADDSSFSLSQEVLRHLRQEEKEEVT
Protocol: (§1) Each expression strain was added to TB broth containing 100 μg/mL ampicillin, 50 μg/mL streptomycin, and 30 μg/mL kanamycin, and cultured at 37° C. The expression was then induced with 100 μM IPTG, and the cells were further cultured at 16° C.
(§2) The culture broth was centrifuged, and the obtained bacteria were suspended in 50 mM HEPES pH8.0, 500 mM NaCl, 20 mM imidazole, 1 mM DTT, 5% (w/v) glycerol, and cOmplete EDTA free, and then frozen and thawed. After the addition of lysozyme and DNase I, the proteins were extracted by sonication, and the supernatant was collected by centrifugation. The resulting supernatant was purified through a HisTrap FF column (GE Healthcare) using an AKTAexpress chromatography system (GE Healthcare, IL, US), made to pass through a Superdex200 16/60 column (GE Healthcare), and eluted with a buffer (20 mM HEPES pH 7.5, 120 mM NaCl, 20% glycerol, 0.8 mM DTT). […] The protein concentration was measured using a Nanodrop 2000 (Thermo Fisher Scientific, MA, US), and each protein was frozen and stored at −80° C. until use.
(§3) The binding of a compound to each STING C-terminal binding domain protein was determined by the protein thermal shift assay, which uses the increase in the thermal denaturation temperature of the protein as an indicator.
(§4) Specifically, an assay buffer (20 mM Tris-HCl pH7.5, 120 mM NaCl) was applied to wells of a 384-well real-time PCR plate. Next, 3 μL of each test compound (final concentration 0.5 mM), 3 μL of SYPRO Orange Protein Gel Stain (Thermo Fisher Scientific) (final concentration: 20× concentration), and 6 μL of the STING protein were mixed in each well while using a plate shaker. A real-time PCR system (Thermo Fisher Scientific) was used to increase the temperature from 25° C. to 95° C. at a rate of 0.03° C. per second, and the thermal denaturation temperature of the protein was measured using the fluorescence emitted by SYPRO Orange as an indicator. The measured values were analyzed using Protein Thermal Shift software (Thermo Fisher Scientific) to determine Tm (the midpoint of the unfolding transition) (° C.) as the temperature at which the rate of increase in fluorescence intensity reached its maximum value. The shift of Tm by the test compound was calculated as ΔTm (° C.) by subtracting, from the Tm value of each compound, the Tm value of the well without the compound.

[2] = target: T2, human REF mutant (Hu-REF) STING C-terminal binding domain protein (Homo sapiens, UniProt Q86WV6); experiment: Protein thermal shift assay, STING binding; settings: test compound final concentration 0.5 mM
T2 construct: made in house; host or cells: E. coli Rosetta 2 (DE3), co-expressed with BirA
T2 sequence (Q86WV6 with tags, fused parts or gaps, change not shown): as the sequence (Q86WV6 with tags, fused parts or gaps G230A/H232R/R293Q) above, with A131G, R133H, Q194R counted along it
Protocol: as §1, §2, §3, §4

[3] = target: T3, human wild-type (Hu-WT) STING C-terminal binding domain protein (Homo sapiens, UniProt Q86WV6, H232R); experiment: Protein thermal shift assay, STING binding; settings: test compound final concentration 0.5 mM
T3 construct: made in house; host or cells: E. coli Rosetta 2 (DE3), co-expressed with BirA
T3 sequence (Q86WV6 with tags, fused parts or gaps H232R): as the sequence (Q86WV6 with tags, fused parts or gaps G230A/H232R/R293Q) above, with A131G, Q194R counted along it
Protocol: as §1, §2, §3, §4

[4] = target: T4, mouse wild type (Ms-WT) STING C-terminal binding domain protein (Mus musculus, UniProt Q3TBT3); experiment: Protein thermal shift assay, STING binding; settings: test compound final concentration 0.5 mM
T4 construct: made in house; host or cells: E. coli Rosetta 2 (DE3), co-expressed with BirA
T4 sequence (Q3TBT3 with tags, fused parts or gaps): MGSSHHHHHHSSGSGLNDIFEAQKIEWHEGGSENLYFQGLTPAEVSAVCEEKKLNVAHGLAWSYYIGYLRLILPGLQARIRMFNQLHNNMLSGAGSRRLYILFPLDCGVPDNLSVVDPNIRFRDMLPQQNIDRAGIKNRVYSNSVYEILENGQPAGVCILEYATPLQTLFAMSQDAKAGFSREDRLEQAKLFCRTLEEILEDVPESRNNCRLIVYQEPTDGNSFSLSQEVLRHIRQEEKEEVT
Protocol: as §1, §2, §3, §4

[5] = target: human STING (THP1-Dual cells, HAQ mutant; IRF3 pathway) (Homo sapiens, UniProt Q86WV6, G230A/H232R/R293Q/R71H); experiment: Reporter gene assay, human STING agonist activity in THP1-Dual cells
Sequence of human STING (THP1-Dual cells, HAQ mutant; IRF3 pathway) (Q86WV6 whole entry R71H/G230A/H232R/R293Q): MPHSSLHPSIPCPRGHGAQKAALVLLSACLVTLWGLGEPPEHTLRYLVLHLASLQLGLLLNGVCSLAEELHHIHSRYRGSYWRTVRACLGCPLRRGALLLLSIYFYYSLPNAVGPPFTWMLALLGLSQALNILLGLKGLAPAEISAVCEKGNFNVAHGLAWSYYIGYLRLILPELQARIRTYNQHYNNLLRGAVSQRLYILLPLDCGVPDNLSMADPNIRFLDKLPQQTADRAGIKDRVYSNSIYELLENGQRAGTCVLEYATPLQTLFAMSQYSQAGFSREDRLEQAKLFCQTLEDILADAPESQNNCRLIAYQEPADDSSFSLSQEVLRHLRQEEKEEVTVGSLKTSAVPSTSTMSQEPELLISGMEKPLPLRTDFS
Protocol: Human STING agonist activity was evaluated using THP1-Dual™ cells (HAQ mutant) (InvivoGen, CA, US), in which activation of the interferon regulatory factor-3 (IRF3) pathway, which is downstream of the STING pathway, could be checked.
The assay was conducted as follows. First, each test compound diluted in PBS was dispensed at 20 μL/well of a transparent 96-well plate (Corning, NY, US). […] The cells were cultured for 24 h under conditions at 37° C. and 5% CO2, and then centrifuged to collect the supernatant. Next, 6 μL of the collected supernatant was added to a white 384-well plate, and 15 μL of QUANTI-Luc (InvivoGen) solution was added thereto. After well mixing, the luminescence was measured using a plate reader (PerkinElmer, MA, US).

[6] = tested on: mouse bone marrow-derived dendritic cells; experiment: Co-culture assay with CT26.WT or CT26.WT-hCD70 cell line and mouse bone marrow-derived dendritic cells; assay type: cell-based; settings: conditions DC, 20 h incubation, FIG. 12
Text: CT26.WT (CRL2638), a mouse colon cancer cell line purchased from American Type Culture Collection, was transduced with human CD70 gene (NP_001243) to establish CT26.WT-hCD70 cells. Specifically, a pLVSIN lentiviral vector (Takara Bio), in which the human CD70 gene was inserted, was constructed. Next, Lenti-X293T cell line (Takara Bio) was transfected with the vector using a Lentiviral High Titer Packaging Mix (Takara Bio). Then, the supernatant was collected, and the CT26.WT was infected therewith. The cells were maintained in medium supplemented with 10 μg/mL puromycin (Thermo Fisher Scientific).
Mouse bone marrow cells were collected from the femur of 5-week-old female BALB/c mice (BALB/cAnNCrlCrlj) (Charles River, Japan). The mouse bone marrow cells were cultured in the presence of […] murine GM-CSF (PEPROTECH) for 7 days to obtain mouse bone marrow-derived dendritic cells. 1.5×10^5 CT26.WT or CT26.WT-hCD70 cell line cells and 1×10^5 mouse bone marrow-derived dendritic cells were seeded per well of a 96-well plate. Each test compound was diluted in RPMI medium (Invitrogen), and 200 μL was added. […] The cells were washed with FCM buffer again and analyzed using a Fortessa (BD Biosciences). MFI of CD86 in CD45^+, CD11c^+, and I-A/I-E^+ fraction was calculated. Then, the ratio with respect to the test compound-free group was calculated. […]

[7] = tested on: CT26.WT-chimeraEGFR cells subcutaneously transplanted in BALB/c mouse; experiment: Anti-tumor test (5); assay type: in vivo; settings: 0.01 mg/kg into the tail vein once on Day 7, FIG. 24
Protocol: Then, the supernatant was collected, and the CT26.WT was infected therewith.
In addition, the vehicle group was provided in which acetate buffer was administered. The number of mice in each group was 8.

[8] = tested on: CT26.WT-hEGFR cells subcutaneously transplanted in BALB/c mouse; experiment: Anti-tumor test (2); assay type: in vivo; settings: 1.5 mg/kg into the tail vein once on Day 12, FIG. 15
Text: CT26.WT (CRL2638), a mouse colon cancer cell line purchased from American Type Culture Collection, was transduced with the human EGFR gene (NP_005219.2) to establish CT26.WT-hEGFR cells. Specifically, a pLVSIN lentiviral vector (Takara Bio), in which the human EGFR gene was inserted, was constructed. Next, Lenti-X293T cell line (Takara Bio) was transfected with the vector using a Lentiviral High Titer Packaging Mix (Takara Bio). Then, the supernatant was collected, and the CT26.WT was infected therewith. The cells were maintained in medium supplemented with 10 μg/mL puromycin (Thermo Fisher Scientific).
CT26.WT-hEGFR cells were suspended in saline. Ne×t, 3×10^6 cells were transplanted subcutaneously into the right axillary region of each BALB/c mouse (Day 0), and random grouping was conducted after 12 days. […] In addition, the vehicle group was provided in which acetate buffer was administered. The number of mice in each group was 8.

| ΔTm at 500 µM [1] [°C] | ΔTm at 500 µM [2] [°C] | ΔTm at 500 µM [3] [°C] | ΔTm at 500 µM [4] [°C] | EC50 [5] [nM] | Compound | CD86 expression on mouse dendritic cells (ratio of MFI with respect to the compound-free group) [6] | tumor growth (tumor volume) [7] | tumor growth (tumor volume) [8] |
| --- | --- | --- | --- | --- | --- | --- | --- | --- |
| 11.3 | 3.4 | 8.4 | 12.9 | 2100 | O=c1c2ncn([C@@H]3O[C@@H]4COP(=O)(S)O[C@H]5[C@@H](O)[C@H](n6cc7c8c(ncnc86)NCCC7)O[C@@H]5COP(=O)(S)O[C@@H]3[C@@H]4O)c2ncn1CCO (single isomer, unassigned) [Compound 6b] | – | – | – |
| – | – | – | – | 200 | O=c1c2ncn([C@@H]3O[C@@H]4COP(=O)(S)O[C@H]5[C@@H](F)[C@H](n6cc7c8c(ncnc86)NCCC7)O[C@@H]5COP(=O)(S)O[C@@H]3[C@@H]4O)c2ncn1CCO (single isomer, unassigned) [Compound 34a] | caused an increase in CD86 expression on mouse dendritic cells in all conditions | tumor growth was not inhibited | – |
| 15.3 | 6.3 | – | 7.4 | – | O=C(CO)NCCn1cnc2c(ncn2[C@@H]2O[C@@H]3COP(=O)(S)O[C@H]4[C@@H](F)[C@H](n5cc6c7c(ncnc75)SCCC6)O[C@@H]4COP(=O)(S)O[C@@H]2[C@@H]3O)c1=O (single isomer, unassigned) [Compound 50b] | – | – | – |
| – | – | – | – | – | anti-EGFR antibody 1: IgG1 isotype with LALA mutation, produced with reference to the Vectibix review report; light chain SEQ ID NO: 9, heavy chain SEQ ID NO: 10 | – | – | tumor growth was not inhibited |
